Data published in publication PMC9688344, “[^225Ac]Ac-SibuDAB for Targeted Alpha Therapy of Prostate Cancer: Preclinical Evaluation and Comparison with [^225Ac]Ac-PSMA-617” (Cancers, 2022).

System: immunocompetent FVB mice
Experiment: Tolerability study in immunocompetent mice
Type: in vivo
Description: Five- to six-week-old immunocompetent, female FVB mice were purchased from Charles River Laboratories (Sulzfeld, Germany). After an acclimatization period of at least 7 days, the mice (n = 5 per group) were intravenously injected with 30 kBq [^225Ac]Ac-SibuDAB or 30 kBq [^225Ac]Ac-PSMA-617 and additional mice (n = 7 per group) remained untreated as controls. Mice were monitored by measuring their body mass and potential signs of pain or unease three times a week (Supplementary Material: Section S7). The mice were euthanized on Day 10, Day 28 or on Day 56, respectively, and variable parameters were assessed from blood and tissue samples.
Hematological analysis was performed using blood samples taken by cardiac puncture immediately after euthanasia. Blood and bone marrow smears were prepared and stained using the Pappenheim protocol. The assessment was carried out by a board-certified veterinary anatomic pathologist (AnaPath Services GmbH, Liestal, Switzerland). Blood plasma parameters were determined in plasma after centrifugation of blood samples obtained shortly before euthanasia (Supplementary Material: Section S7).
Tissue sections of formalin-fixed paraffin-embedded (FFPE) spleen, salivary glands and kidneys were prepared and stained with hematoxylin and eosin (H&E) by AnaPath Services GmbH (Liestal, Switzerland). The tissues were analyzed by a board certified veterinary pathologist using a pre-defined scoring system (Supplementary Material: Section S7). […]
The percentage of radioligand bound to mouse or human plasma (A bound) was plotted against the molar ratios of MSA/HSA to radioligand and fitted with a nonlinear regression curve (specific binding with Hill slope, Bmax set to 100%) using GraphPad Prism software (version 8) to obtain the half maximum binding (B 50).
Results: The results are reported in the main article.
Purpose: A tolerability study with normal, immunocompetent FVB mice was con-ducted in order to assess potential side effects to the bone marrow, spleen, salivary glands and kidneys after the application of high activities of the 225Ac-labeled PSMA radioligands.
Methods: Monitoring Body Mass and Signs of Unease: Mice were monitored by meas-uring their body mass (BM) three times a week. The body masses were expressed as the relative body mass, defined as [BMx/BM0], where BMx is the body mass in grams on a given Day x and BM0 is the body mass in grams on Day 0. Endpoint criteria, defined as (i) >15% loss in body mass, (ii) signs of unease and pain or a combination thereof based on a scoring system, were not reached in this stu dy.
Hematology: Blood cell counts were determined in blood samples taken by cardiac puncture immediately after euthanasia and collected in EDTA tubes (Microvette® 100 K3 EDTA, Sarstedt, Germany). Leukocyte, lymphocyte, erythrocyte and thrombocyte counts as well as hemoglobin and hematocrit values were determined using a hematology ana-lyzer (VetScan HM5, Abaxis, United States). Blood smears were prepared on glass slides with cardiac blood. The bone marrow was collected from the femur, diluted in FCS/H2O (2:1 v/v) and smeared onto microscopy slides using a paintbrush. The slides were stained with a May Grünwald solution and subsequently with diluted Giemsa solution using the Pappenheim method and covered with coverslips using mounting medium (Pertex).
The assessment of potential morphological ch anges of the blood cells and counting of the subgroups of leukocytes was performed by a board-certified veterinary pathologist (Ana-Path Services GmbH, Liestal, Switzerland).
Histopathological Analysis: Spleen, salivary glands and kidneys were formalin-fixed and paraffin-embedded. Tissue sections were stained with hematoxylin & eosin (H&E) […]
Blood Plasma Parameters: Blood plasma parameters were determined in plasma ob-tained from centrifuged retrobulbar blood samples collected in lithium-heparin tubes (Mi-crovette® 200 LH, SARSTEDT). The concentrations of blood urea nitrogen (BUN), alkaline […]

SMILES: O=C([O-])CN1CCN(CC(=O)[O-])CCN(CC(=O)NCC2CCC(C(=O)NC(Cc3ccc4ccccc4c3)C(=O)NCCCCC(NC(=O)NC(CCC(=O)O)C(=O)O)C(=O)O)CC2)CCN(CC(=O)[O-])CC1.[225Ac+3] (stereo not shown) [[^225Ac]Ac-PSMA-617]
- Kidneys: Tubular basophilia, score average (Day 28, 30 kBq): 1.0
- Salivary glands: Ductal hyperplasia with inflammatory cells, incidence (Day 28, 30 kBq): 0
- Salivary glands: Ductal hyperplasia with inflammatory cells, score average (Day 28, 30 kBq): 0.0
- Salivary glands: Hypertrophy acinar, sublingual, incidence (Day 28, 30 kBq): 0
- Salivary glands: Hypertrophy acinar, sublingual, score average (Day 28, 30 kBq): 0.0
- Salivary glands: Mononuclear cell foci, incidence (Day 28, 30 kBq): 1
- Salivary glands: Mononuclear cell foci, score average (Day 28, 30 kBq): 1.0
- Salivary glands: Necrosis, multifocal, serous acinar cells, incidence (Day 28, 30 kBq): all five
- Salivary glands: Necrosis, multifocal, serous acinar cells, score average (Day 28, 30 kBq): 1.8
- Salivary glands: Vacuolation, incidence (Day 28, 30 kBq): 0
- Salivary glands: Vacuolation, score average (Day 28, 30 kBq): 0.0
- Spleen: Extramedullary hematopoiesis, incidence (Day 28, 30 kBq): 5
- Spleen: Extramedullary hematopoiesis, score average (Day 28, 30 kBq): 1.8
- Spleen: Hyperplasia, lymphoid, incidence (Day 28, 30 kBq): 5
- Spleen: Hyperplasia, lymphoid, score average (Day 28, 30 kBq): 1.0
- Spleen: Pigment, incidence (Day 28, 30 kBq): 5
- Spleen: Pigment, score average (Day 28, 30 kBq): 1.8
- Salivary glands: Necrosis, multifocal, serous acinar cells, incidence (Day 28, 30 kBq, listed as [225Ac]Ac-PSMA-617): 5
- Bone marrow % E (Day 28, mouse M1): 50%
- Bone marrow % M (Day 28, mouse M1): 50%
- Bone marrow % E (Day 28, mouse M2): 40%
- Bone marrow % M (Day 28, mouse M2): 60%
- Bone marrow % E (Day 28, mouse M3): 40%
- Bone marrow % M (Day 28, mouse M3): 60%
- Bone marrow % E (Day 28, mouse M4): 50%
- Bone marrow % M (Day 28, mouse M4): 50%
- Bone marrow % E (Day 28, mouse M5): 40%
- Bone marrow % M (Day 28, mouse M5): 60%
- Kidneys: Hyperplasia/hypertrophy, tubular, incidence (Day 56, 30 kBq): 1
- Kidneys: Hyperplasia/hypertrophy, tubular, score average (Day 56, 30 kBq): 1.0
- Kidneys: Hypertrophy/hyperplasia, tubular with ectasia, incidence (Day 56, 30 kBq): 0
- Kidneys: Hypertrophy/hyperplasia, tubular with ectasia, score average (Day 56, 30 kBq): 0.0
- Kidneys: Inflammatory cells, interstitium, incidence (Day 56, 30 kBq): 0
- Kidneys: Inflammatory cells, interstitium, score average (Day 56, 30 kBq): 0.0
- Kidneys: Inflammatory cells, pelvis, incidence (Day 56, 30 kBq): 0
- Kidneys: Inflammatory cells, pelvis, score average (Day 56, 30 kBq): 0.0
- Kidneys: Mineralization, papilla, incidence (Day 56, 30 kBq): 0
- Kidneys: Mineralization, papilla, score average (Day 56, 30 kBq): 0.0
- Kidneys: Tubular basophilia, incidence (Day 56, 30 kBq): 1
- Kidneys: Tubular basophilia, score average (Day 56, 30 kBq): 1.0
- Salivary glands: Ductal hyperplasia with inflammatory cells, incidence (Day 56, 30 kBq): 0
- Salivary glands: Ductal hyperplasia with inflammatory cells, score average (Day 56, 30 kBq): 0.0
- Salivary glands: Hypertrophy acinar, sublingual, incidence (Day 56, 30 kBq): 0
- Salivary glands: Hypertrophy acinar, sublingual, score average (Day 56, 30 kBq): 0.0
- Salivary glands: Mononuclear cell foci, incidence (Day 56, 30 kBq): 2
- Salivary glands: Mononuclear cell foci, score average (Day 56, 30 kBq): 1.0
- Salivary glands: Necrosis, multifocal, serous acinar cells, incidence (Day 56, 30 kBq): 0
- Salivary glands: Necrosis, multifocal, serous acinar cells, score average (Day 56, 30 kBq): 0.0
- Salivary glands: Vacuolation, incidence (Day 56, 30 kBq): 0
- Salivary glands: Vacuolation, score average (Day 56, 30 kBq): 0.0
- Spleen: Extramedullary hematopoiesis, incidence (Day 56, 30 kBq): 5
- Spleen: Extramedullary hematopoiesis, score average (Day 56, 30 kBq): 1.4
- Spleen: Hyperplasia, lymphoid, incidence (Day 56, 30 kBq): 0
- Spleen: Hyperplasia, lymphoid, score average (Day 56, 30 kBq): 0.0
- Spleen: Pigment, incidence (Day 56, 30 kBq): 5
- Spleen: Pigment, score average (Day 56, 30 kBq): 2.0
- Bone marrow % E (Day 56, mouse M1): 30%
- Bone marrow % M (Day 56, mouse M1): 70%
- Bone marrow % E (Day 56, mouse M2): 40%
- Bone marrow % M (Day 56, mouse M2): 60%
- Bone marrow % E (Day 56, mouse M3): 30%
- Bone marrow % M (Day 56, mouse M3): 70%
- Bone marrow % E (Day 56, mouse M4): 40%
- Bone marrow % M (Day 56, mouse M4): 60%
